# Results taken from patent publication US20240239786A1, “COMPOSITIONS AND METHODS FOR THE TREATMENT AND PREVENTION OF CANCER” (Yale University, priority 2021, published 2024).
# Tests used:
# Format in all cases: cell-based
# cNHEJ activity = assay: NHEJ reporter assay in SKOV3-EJ5-GFP cells; details: I-SceI-mediated DSBs
# Source text: Cells were transfected with the ISceI-expressing plasmid and then treated various concentrations of DB4 for 48 hr. Cells were harvested, stained with 7-AAD, and analyzed by flow cytometry for GFP-positive cells indicative of HR repair activity. […] Cells were transfected with the ISceI-expressing plasmid and treated with various concentrations of DB4. Cells were harvested, stained with 7-AAD, and stained, and analyzed by flow cytometry for GFP-positive cells indicative of NHEJ activity. Data are means±SD (N=3). *, p<0.05; **, p<0.01, compared with the 0 μM control of ISceI-transected cells. FIG. 7C depicts representative results of confocal imaging of olaparib-induced nuclear Rad51 foci in SKOV3 cells treated DB4. […] Cells were also scored for nuclei containing equal or more than 10 distinct Rad51 foci to determine the percentage of cells positive for Rad51 foci. […] Protein was assessed by western blot analysis for the levels of γH2AX, p-H1, cyclin A2, p-CDK1/2, and HSC70. […] The band density of γH2AX indicative of DSBs was quantified by densitometry. […]
# SKOV3-DR-GFP cells were established as described previously (Lin Z P et al., 2014, Molecular Cancer Res, 12:381-393). […] Cells were then trypsinized, stained with 7-AAD, and analyzed for the percentage of GFP-positive and […] cells by flow cytometry using an LSR II flow cytometer (BD Biosciences) and FlowJo software (Tree Star; Ashland, OR). […]
# PEO1-OR cells = assay: MTS cytotoxicity assay, sensitization to olaparib, PEO1-OR
# Hs 832(C).T cells = assay: Caspase 3/7 assay, Hs 832(C).T; details: benign ovarian cyst fibroblast cells Hs 832(C).T
# Experimental: Cells were pre-treated with 30 μM DB4 for 1 hr and then treated with various concentrations of olaparib for 72 hr. Cell survival was determined by MTS cytotoxicity assay. Data are means±SD (N=3-4). […] EOB calculation was used to quantify the synergy of the combination of DB4 and various concentrations of olaparib in PEO1 or PEO4 cells as shown in FIG. 8A. EOB>0, synergism; EOB=0, additivity; EOB<0, antagonism. […] Cells were pre-treated with 30 μM DB4-F for 1 hr and then treated with various concentrations of olaparib for 72 hr. Cell survival was determined by MTS cytotoxicity assay. Data are means±SD (N=3-4). […] EOB calculation was used to quantify the synergy of the combination of DB4-F and various concentrations of olaparib in PEO1 or PEO4 cells as shown in FIG. 8B. […] Cell survival was determined by MTS cytotoxicity assay. […] Caspase 3/7 activity was expressed as RLU per μg/μl protein. […] Caspase 3/7 activity was expressed as RLU per μg/μl protein. […] Cells were treated and caspase 3/7 activity was measured as described in FIG. 8G and FIG. 8H.
# Furthermore, the effects of DB4 on olaparib-induced apoptosis at 24 hr were evaluated. […]
# The assay was performed as described previously (Lin Z P et al., 2018, PLOS One, 13:e0207399). […] Total protein concentration of cell lysates was determined as described above. Caspase 3/7 activity was expressed as luminescence units (RLU) per μg/μL protein for each sample.
smiles,measurement,setting,value
"C=CCn1c(SCc2cccc(Cl)c2)nnc1C1CCN(Cc2nc3ccccc3s2)CC1 [DB4, 2-[(4-{4-allyl-5-[(3-chlorobenzyl)thio]-4H-1,2,4-triazol-3-yl}-1-piperidinyl)methyl]-1,3-benzothiazole]",cNHEJ activity,cNHEJ activity,appeared to enhance the cNHEJ activity induced by I-SceI-mediated DSBs but the increase was not statistically significant
same,sensitization to olaparib (cell survival),PEO1-OR cells; DB4 at 5 μM,partially sensitized
same,sensitization to olaparib (cell survival),PEO1-OR cells; DB4 at 20 μM,near-fully sensitized
same,effect on apoptotic effects of olaparib (caspase 3/7),Hs 832(C).T cells,did not enhance the apoptotic effects of olaparib
